According to US20230172897A1, “METHODS OF TREATING BREAST CANCERS WITH SELECTIVE ANDROGEN RECEPTOR MODULATORS AND ADDITIONAL THERAPEUTIC AGENTS” (VERU, INC., priority 2021, published 2023):

Columns and labels:
[1] = tested on: HCI-13 tumors; assay: Phospho-proteomics (protein array) of HCI-13 PDX; type: in vivo, mice
Procedure: Whole tissue lysates were directly prepared from the tissue sections using a 1:1 mixture of T-PER (Tissue Protein Extraction Reagent; Pierce, Rockford, Ill.) and 2× Tris-Glycine SDS Sample Buffer (Invitrogen, Carlsbad, Calif.) supplemented with 5% 2-mercaptoethanol. Samples were boiled for 8 minutes and stored at −80° C. until arrayed.
Samples and standard curves for internal quality assurance were printed onto nitrocellulose-coated slides (Grace Bio-labs, Bend, Oreg.) using an Aushon 2470 arrayer (Aushon BioSystems, Billerica, Mass.). Selected arrays were used to estimate the amount of protein in each sample using a Sypro Ruby Protein Blot Stain (Molecular Probes, Eugene, Oreg.) protocol following manufacturer's instructions (Pin et al. (2014) Curr Protoc Protein Sci 75, Unit 27 27). Remaining arrays were tested with a single primary antibody using an automated system (Dako Cytomation, Carpinteria, Calif.) as previously described (Baldelli et al. (2015) Oncotarget 6, 32368-32379). Arrays were first incubated with Reblot Antibody stripping solution (Chemicon, Temecula, Calif.), followed by two washes in PBS, and I-block solution (Tropix, Bedford, Mass.) for 4 hours. Arrays were probed with a total of 174 antibodies targeting a wide range of protein kinases and their activation via phosphorylation. Antibodies specificity was tested using standard immunoblotting on a panel of cell lysates. […]
The commercially available Signal Amplification System (CSA; Dako Cytomation) and a streptavidin-conjugated IRDye 680 secondary antibody (LI-COR Biosciences, Lincoln, Nebra.) were used as signal detection methods. Images were acquired on the laser-based PowerScanner (TECAN, Monnedorf, Switzerland), and data were analyzed using the MicroVigene software Version 5.1 (Vigene Tech, Carlisle, Mass.) as previously described (Baldelli et al. (2015) Oncotarget 6, 32368-32379). […]

[2] = Phase 3 trials, muscle wasting in non-small cell lung cancer; type: in vivo, human; settings: 3 mg daily
Excerpt: These include: 1. Protocol G100401, a Phase 1 single ascending dose study in 96 healthy, young, male volunteers; 2. Protocol G100402, a Phase 1 multiple ascending dose study in 50 healthy, young, male volunteers, and 23 elderly male volunteers with truncal obesity; 3. Protocol G100503, a Phase 1 single dose pharmacokinetic study to assess the effect of a dosage regimen that simulates a sustained release formulation to an immediate release formulation in 18 healthy, young male volunteers and 18 postmenopausal women; 4. Protocol G100506, a Phase 1 single dose pharmacokinetic study to assess the relative bioavailability of a 3 mg hard shell capsule formulation to be used during continued clinical development and to assess the effect of food on the pharmacokinetics of the 3 mg softgel formulation in 27 healthy, young, male volunteers; 5. Protocol 006, a Phase 1 single dose and multiple dose pharmacokinetic study in 24 postmenopausal, Japanese women; 6. Protocol G200501, a Phase 2 study in 60 postmenopausal women and 60 elderly men to assess lean body mass and physical function; 7. Protocol 003, a Phase 1b study in 44 postmenopausal women; 8.

[3] = molecular target: T1, ER-α (Rattus norvegicus, UniProt P06211); assay: Transcriptional activation (luciferase) in HEK-293 cells; type: cell-based
T1 construct: expressed in transfected cells
T1 sequence (P06211 whole entry): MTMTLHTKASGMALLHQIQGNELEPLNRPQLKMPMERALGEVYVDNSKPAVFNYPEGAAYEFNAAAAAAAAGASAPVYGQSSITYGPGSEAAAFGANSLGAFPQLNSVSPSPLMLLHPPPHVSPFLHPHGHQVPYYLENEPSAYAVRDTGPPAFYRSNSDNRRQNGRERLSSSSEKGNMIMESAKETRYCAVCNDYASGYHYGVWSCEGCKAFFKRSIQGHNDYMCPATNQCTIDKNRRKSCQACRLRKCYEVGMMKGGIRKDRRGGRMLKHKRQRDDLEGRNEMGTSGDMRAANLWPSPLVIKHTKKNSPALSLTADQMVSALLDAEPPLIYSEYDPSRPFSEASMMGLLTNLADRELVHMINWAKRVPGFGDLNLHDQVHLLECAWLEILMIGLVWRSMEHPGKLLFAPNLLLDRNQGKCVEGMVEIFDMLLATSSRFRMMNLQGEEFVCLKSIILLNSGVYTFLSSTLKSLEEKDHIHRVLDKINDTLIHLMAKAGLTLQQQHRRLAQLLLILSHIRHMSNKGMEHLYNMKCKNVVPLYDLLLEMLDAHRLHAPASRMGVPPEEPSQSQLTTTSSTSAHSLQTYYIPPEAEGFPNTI
Procedure: (§1) Rat GR, MR, PR, ER-α and ER-β were individually cloned into a pCR3.1 vector backbone. Sequencing was performed to verify the absence of any mutations. HEK-293 cells were plated at 90,000 cells per well of a 24 well plate in Dulbecco's Minimal Essential Media supplemented with 5% charcoal-stripped FBS. […] Luciferase assays were performed 48 h after transfection. Transcriptional activation values are represented as firefly luciferase normalized to renilla luciferase.

[4] = molecular target: T2, GR (Rattus norvegicus, UniProt P06536); assay: as above; type: cell-based
T2 construct: expressed in transfected cells
T2 sequence (P06536 whole entry): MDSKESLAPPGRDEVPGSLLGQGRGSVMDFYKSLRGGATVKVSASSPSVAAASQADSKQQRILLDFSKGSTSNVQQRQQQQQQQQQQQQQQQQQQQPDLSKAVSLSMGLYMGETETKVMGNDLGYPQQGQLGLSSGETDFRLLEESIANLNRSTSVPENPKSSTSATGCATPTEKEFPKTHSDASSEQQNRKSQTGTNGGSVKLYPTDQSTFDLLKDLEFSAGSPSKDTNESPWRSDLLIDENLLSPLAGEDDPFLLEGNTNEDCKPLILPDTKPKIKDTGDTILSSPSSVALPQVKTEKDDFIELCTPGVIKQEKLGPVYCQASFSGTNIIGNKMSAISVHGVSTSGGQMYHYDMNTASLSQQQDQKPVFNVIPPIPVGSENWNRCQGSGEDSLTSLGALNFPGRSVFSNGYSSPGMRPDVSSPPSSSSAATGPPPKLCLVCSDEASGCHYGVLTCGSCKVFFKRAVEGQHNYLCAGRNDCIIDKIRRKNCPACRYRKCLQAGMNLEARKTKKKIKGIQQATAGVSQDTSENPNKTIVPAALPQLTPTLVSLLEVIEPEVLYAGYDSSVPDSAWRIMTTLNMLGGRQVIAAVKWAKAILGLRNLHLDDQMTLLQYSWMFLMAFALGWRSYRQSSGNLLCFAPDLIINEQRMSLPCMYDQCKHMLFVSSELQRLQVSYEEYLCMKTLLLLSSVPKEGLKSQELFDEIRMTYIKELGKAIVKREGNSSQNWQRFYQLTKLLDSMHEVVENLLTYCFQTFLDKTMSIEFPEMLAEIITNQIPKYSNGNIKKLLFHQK
Procedure: as §1

[5] = molecular target: T3, MR (Rattus norvegicus, UniProt P22199); assay: as above; type: cell-based
T3 construct: expressed in transfected cells
T3 sequence (P22199 1-981): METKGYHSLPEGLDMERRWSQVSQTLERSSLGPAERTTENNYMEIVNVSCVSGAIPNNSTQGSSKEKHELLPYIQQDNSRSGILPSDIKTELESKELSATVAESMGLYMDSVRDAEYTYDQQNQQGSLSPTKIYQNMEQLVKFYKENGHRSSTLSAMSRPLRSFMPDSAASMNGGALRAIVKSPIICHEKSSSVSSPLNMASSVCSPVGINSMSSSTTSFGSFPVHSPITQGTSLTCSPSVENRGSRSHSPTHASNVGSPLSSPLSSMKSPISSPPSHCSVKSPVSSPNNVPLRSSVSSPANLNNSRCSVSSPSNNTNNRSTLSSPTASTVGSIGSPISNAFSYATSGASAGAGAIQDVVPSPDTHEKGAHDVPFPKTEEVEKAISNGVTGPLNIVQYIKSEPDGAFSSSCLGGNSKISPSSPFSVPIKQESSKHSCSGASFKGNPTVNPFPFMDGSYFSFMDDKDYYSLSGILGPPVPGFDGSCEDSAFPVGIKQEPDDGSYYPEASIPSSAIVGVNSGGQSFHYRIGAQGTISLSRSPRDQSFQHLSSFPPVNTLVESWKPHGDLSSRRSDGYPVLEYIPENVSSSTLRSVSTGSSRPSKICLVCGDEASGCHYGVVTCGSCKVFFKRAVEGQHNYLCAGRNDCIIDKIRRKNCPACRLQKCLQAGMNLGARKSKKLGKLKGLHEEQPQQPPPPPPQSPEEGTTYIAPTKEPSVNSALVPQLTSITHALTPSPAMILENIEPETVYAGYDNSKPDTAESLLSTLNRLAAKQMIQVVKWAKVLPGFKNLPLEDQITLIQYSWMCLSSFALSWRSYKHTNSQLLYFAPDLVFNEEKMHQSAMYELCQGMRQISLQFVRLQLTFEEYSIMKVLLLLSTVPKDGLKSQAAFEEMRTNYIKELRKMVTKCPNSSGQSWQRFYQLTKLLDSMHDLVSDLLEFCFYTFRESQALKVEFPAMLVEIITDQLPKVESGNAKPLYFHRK
Procedure: as §1

[6] = agonist mode, all tested concentrations

Row | Structure (SMILES) | expression of proliferation marker Ki67 [1] | phosphorylation of oncogenic proteins (pERK, PKC z, RSK3, Ezrin, BCL2, ELF4G, ER) [1] | phosphorylation of tumor suppressor proteins (p53, p27, ACC, AR) [1] | lean body mass [2] | ER-α-mediated transactivation ([3]; agonist mode, highest tested concentration 1 μM) | 17β-estradiol-induced ER-α activity ([3]; antagonist mode) | GR-mediated transactivation [4, 6] | dexamethasone-induced GR-mediated transactivation ([4]; antagonist mode) | MR-mediated transactivation [5, 6] | aldosterone-induced MR-mediated transactivation ([5]; antagonist mode)
1 | C[C@](O)(COc1ccc(C#N)cc1)C(=O)Nc1ccc(C#N)c(C(F)(F)F)c1 [Formula IX, (S)—N-(4-Cyano-3-(trifluoromethyl)phenyl)-3-(4-cyanophenoxy)-2-hydroxy-2-methylpropanamide] | inhibited the expression | inhibited the phosphorylation | increased the phosphorylation | increased |  |  |  |  |  | 
2 | C[C@](O)(COc1ccc(C#N)cc1)C(=O)Nc1ccc(C#N)c(Cl)c1 [Formula VIII, (S)—N-(3-chloro-4-cyanophenyl)-3-(4-cyanophenoxy)-2-hydroxy-2-methylpropanamide] |  |  |  |  | failed to activate | failed to alter | did not induce | failed to alter | did not induce | failed to alter
